Test [1] concerns human NPM-ALK positive and PDGFRB negative cell line SR-786. Kind of test: Cell number after three days culture with inhibitor, cell line SR-786. Particulars: different concentrations, three days in RPMI medium.
Test [2] has as its system murine NPM-ALK and PDGFRB positive cell line 417. Put plainly: Cell number after three days culture with inhibitor, cell line 417. The settings on record: different concentrations, three days in RPMI medium.
In test [3] the test system is murine NPM-ALK positive cell line CD4-417 tumors. Put plainly: Murine xenograft model, CD4-417 cells in flank of SCID mice.
Test [4] relates to human ACLC/HD-cell lines. Particulars: cited from earlier work.
Test [5] concerns HD and ALCL. The settings on record: cited from earlier work.
Test [6] deals with Karpas-299 lymphomas. Particulars: cited from earlier work.
The test system of test [7] is CD30. Particulars: cited from earlier work.
In test [8] the target is T1, NPM-ALK (Homo sapiens, UniProt Q9UM73).
T1 construct: the other entry of the earlier key: NPM1 (P06748, Nucleophosmin)
T1 sequence (Q9UM73 with tags, fused parts or gaps): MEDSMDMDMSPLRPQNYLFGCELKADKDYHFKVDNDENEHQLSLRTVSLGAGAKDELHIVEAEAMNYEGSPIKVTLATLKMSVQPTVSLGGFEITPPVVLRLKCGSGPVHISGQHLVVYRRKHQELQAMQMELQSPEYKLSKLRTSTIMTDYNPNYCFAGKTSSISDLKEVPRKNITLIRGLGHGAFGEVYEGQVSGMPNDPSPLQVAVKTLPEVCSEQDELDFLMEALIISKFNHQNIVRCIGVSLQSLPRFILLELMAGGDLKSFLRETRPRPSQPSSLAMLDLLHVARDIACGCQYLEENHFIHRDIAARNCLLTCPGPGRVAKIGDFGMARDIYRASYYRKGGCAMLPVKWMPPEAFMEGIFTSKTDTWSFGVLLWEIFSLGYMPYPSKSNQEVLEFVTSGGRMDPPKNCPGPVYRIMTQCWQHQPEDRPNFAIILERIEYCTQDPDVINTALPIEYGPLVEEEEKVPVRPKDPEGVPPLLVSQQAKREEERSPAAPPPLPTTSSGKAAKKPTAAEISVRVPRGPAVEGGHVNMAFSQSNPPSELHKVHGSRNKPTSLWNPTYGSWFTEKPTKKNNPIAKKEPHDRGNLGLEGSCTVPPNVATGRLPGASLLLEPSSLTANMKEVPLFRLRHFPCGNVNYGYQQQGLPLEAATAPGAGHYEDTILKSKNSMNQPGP
Particulars: cited from earlier work.

Test [9] deals with SR-786 cells. Put plainly: Alamar Blue assay (apoptosis), SR-786 cells. Type of test: cell-based, human. The method, then:
(§1) Apoptosis rates were measured by Alamar Blue assays. The active ingredient of Alamar Blue is resazurin, a non-fluorescent dark blue indicator dye. It is able to permeate cells and is converted to resorufin, a fluorescent, bright red dye, in a reduction reaction by living (metabolically active) cells. The produced fluorescence is proportional to the number of metabolically active cells.
(§2) We incubated SR-786 and 417 cells treated with 0-20 μM imatinib with Alamar Blue for one hour at 37 degrees Celsius.
(In general: Resazurin is reduced to fluorescent resorufin, in cell work by metabolically active cells.)

The subject of test [10] is human ALK positive ALCL cell lines. The settings on record: cited from earlier work.
The test system of test [11] is 417 cells. Put plainly: Alamar Blue assay (apoptosis), 417 cells. Type of test: cell-based, mouse. The method, then: as §1, §2

Entries after “also recorded” stand apart in the source; their conditions may differ.

With `Cc1cn(-c2cc(NC(=O)c3ccc(C)c(Nc4nccc(-c5cccnc5)n4)c3)cc(C(F)(F)F)c2)cn1` [nilotinib, 4-methyl-N-[3-(4-methyl-1H-imidazol-1-yl)-5-(trifluoromethyl)phenyl]-3-[(4-pyridin-3-ylpyrimidin-2-yl)amino]benzamide], in [1], the “cell number / proliferation rates, cell line SR-786” value is reported as “remain unaffected”. Further, the “cell number (antiproliferative effect), cell line 417” value in [2] is recorded as “strongly react; also recorded: dose dependent reduction in cell number”. In addition, the “tumor weight vs untreated control tumors” value in test [3] (after 6 days of treatment) was “drastically reduced”. The tumor size reduction entry in test [3] (nilotinib treatment, xenografted mice) is listed as “more than 59%”.
For `CNC(=O)c1cc(Oc2ccc(NC(=O)Nc3ccc(Cl)c(C(F)(F)F)c3)cc2)ccn1` [sorafenib, 4-[4-[[4-chloro-3-(trifluoromethyl)phenyl]carbamoylamino]phenoxy]-N-methyl-pyridine-2-carboxamide], in [4], the “apoptosis in human ACLC/HD-cell lines” value is “able to induce apoptosis”. In test [5], the “in vivo treatment of HD and ALCL” value is “not effective”.
With `COc1cc(N2CCC(N3CCN(C)CC3)CC2)ccc1Nc1ncc(Cl)c(Nc2ccccc2S(=O)(=O)C(C)C)n1` [NVP-TAE684], in [6], the “established Karpas-299 lymphomas in vivo” value is “induced regression”. Moreover, the “lymphomagenesis in two independent models of ALK-positive ALCL” value in test [6] (in vivo) is on record as “suppress lymphomagenesis”. Besides, the CD30 expression entry in test [7] was “induced down-regulation”.
Regarding `Cc1ccc(NC(=O)c2ccc(CN3CCN(C)CC3)cc2)cc1Nc1nccc(-c2cccnc2)n1` [imatinib, 4-[(4-methylpiperazin-1-yl)methyl]-N-[4-methyl-3-[(4-pyridin-3-ylpyrimidin-2-yl)amino]phenyl]benzamide], in test [8], the “binding to ALK” value is recorded as “unable to bind ALK” and the “sensitivity of NPM-ALK to imatinib treatment” value is “insensitive”. Also, the “conversion of resazurin to resorufin, SR-786 cells” value in [9] (0-20 μM, Alamar Blue one hour at 37 degrees Celsius) is “comparable rate, regardless of imatinib concentrations”. The “apoptosis by Alamar Blue, SR-786 cells” value in test [9] (up to 20 μM, three days) is “unaffected”. In test [10], the “effect on ALCL cell lines” value is given as “unable to show effects”. Besides, in test [11] (0-10 μM, Alamar Blue one hour at 37 degrees Celsius), the “conversion of resazurin to resorufin, 417 cells at 0-10 μM” value is on record as “responded similar to SR-786 cells”. Further, the “conversion of resazurin to resorufin (color change), 417 cells at 20 μM” value in [11] (20 μM, Alamar Blue one hour at 37 degrees Celsius) is reported as “not able to induce the color change”. Besides, the “apoptosis by Alamar Blue, 417 cells at 20 μM” value in [11] (20 μM, three days after treatment) is recorded as “strongly increased; also recorded: high apoptosis”. Besides, the “apoptosis by Alamar Blue, 417 cells, dose dependence” value in [11] (in vitro, 0-20 μM) is given as “increased apoptosis rates; also recorded: dose dependent apoptosis”. The “cell number (antiproliferative effect), cell line 417” value in [2] is on record as “increasingly impaired; also recorded: strongly react; also recorded: reduced cell numbers; also recorded: dose dependent reduction in cell number”.

These data come from patent publication US8933037B2, “Methods involving PDGFRBETA inhibitors” (Medizinische Universitat Wien, priority 2009, dated 2015).
